The source made the active and inactive calls. For most assays here, no stated cut-off is given here; in the data, actives have a measured Kd and inactives only a lower limit.
How the values were obtained:
[1] = target: Epithelial discoidin domain-containing receptor 1 (Homo sapiens, UniProt Q08345)
[2] = target: Non-receptor tyrosine-protein kinase TYK2 (Homo sapiens, UniProt P29597)
[3] = target: T1, Dual specificity mitogen-activated protein kinase kinase 5 (Homo sapiens, UniProt Q13163)
T1 sequence (Q13163 whole entry): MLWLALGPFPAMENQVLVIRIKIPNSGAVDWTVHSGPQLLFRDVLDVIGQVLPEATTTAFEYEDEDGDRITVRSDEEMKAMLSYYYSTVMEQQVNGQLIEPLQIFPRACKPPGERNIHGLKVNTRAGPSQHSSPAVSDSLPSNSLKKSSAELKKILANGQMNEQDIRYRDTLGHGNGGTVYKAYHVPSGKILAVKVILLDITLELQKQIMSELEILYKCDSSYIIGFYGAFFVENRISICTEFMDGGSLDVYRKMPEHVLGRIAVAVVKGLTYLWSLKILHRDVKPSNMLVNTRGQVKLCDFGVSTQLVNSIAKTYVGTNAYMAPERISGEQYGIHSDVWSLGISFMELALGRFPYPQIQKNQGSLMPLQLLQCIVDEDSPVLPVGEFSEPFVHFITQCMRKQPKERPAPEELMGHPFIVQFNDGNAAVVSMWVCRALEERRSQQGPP

[4] = target: Casein kinase I isoform alpha (Homo sapiens, UniProt P48729)
Sequence of Casein kinase I isoform alpha (P48729 whole entry, canonical isoform): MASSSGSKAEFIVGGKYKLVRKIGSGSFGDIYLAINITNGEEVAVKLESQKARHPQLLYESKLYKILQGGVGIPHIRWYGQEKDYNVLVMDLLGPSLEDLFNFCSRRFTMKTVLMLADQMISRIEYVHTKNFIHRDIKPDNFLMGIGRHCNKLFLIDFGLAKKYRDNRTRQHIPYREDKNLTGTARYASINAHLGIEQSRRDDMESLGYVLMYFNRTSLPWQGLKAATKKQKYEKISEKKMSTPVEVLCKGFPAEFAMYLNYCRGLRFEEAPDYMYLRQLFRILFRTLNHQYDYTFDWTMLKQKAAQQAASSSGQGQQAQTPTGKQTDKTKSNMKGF

[5] = target: Tyrosine-protein kinase BTK (Homo sapiens, UniProt Q06187)
Sequence of Tyrosine-protein kinase BTK (Q06187 whole entry): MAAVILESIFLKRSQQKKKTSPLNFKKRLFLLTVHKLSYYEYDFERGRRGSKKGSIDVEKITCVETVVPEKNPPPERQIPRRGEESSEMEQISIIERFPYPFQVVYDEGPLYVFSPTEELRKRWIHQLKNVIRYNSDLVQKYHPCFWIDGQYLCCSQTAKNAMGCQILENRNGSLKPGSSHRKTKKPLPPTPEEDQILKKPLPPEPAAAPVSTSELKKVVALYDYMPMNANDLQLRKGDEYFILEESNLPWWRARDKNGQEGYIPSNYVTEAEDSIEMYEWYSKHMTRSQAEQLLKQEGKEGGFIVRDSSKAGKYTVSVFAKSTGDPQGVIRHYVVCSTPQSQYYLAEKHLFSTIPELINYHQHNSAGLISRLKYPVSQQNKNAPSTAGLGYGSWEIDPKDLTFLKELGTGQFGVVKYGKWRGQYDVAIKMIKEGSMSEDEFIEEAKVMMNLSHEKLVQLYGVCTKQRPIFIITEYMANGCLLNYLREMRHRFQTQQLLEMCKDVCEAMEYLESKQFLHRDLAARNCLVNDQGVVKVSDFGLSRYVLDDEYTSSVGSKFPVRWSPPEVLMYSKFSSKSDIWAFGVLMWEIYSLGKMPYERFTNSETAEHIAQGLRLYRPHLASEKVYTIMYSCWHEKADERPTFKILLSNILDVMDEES

[6] = target: T2, Mitogen-activated protein kinase kinase kinase kinase 3 (Homo sapiens, UniProt Q8IVH8)
T2 sequence (Q8IVH8 whole entry): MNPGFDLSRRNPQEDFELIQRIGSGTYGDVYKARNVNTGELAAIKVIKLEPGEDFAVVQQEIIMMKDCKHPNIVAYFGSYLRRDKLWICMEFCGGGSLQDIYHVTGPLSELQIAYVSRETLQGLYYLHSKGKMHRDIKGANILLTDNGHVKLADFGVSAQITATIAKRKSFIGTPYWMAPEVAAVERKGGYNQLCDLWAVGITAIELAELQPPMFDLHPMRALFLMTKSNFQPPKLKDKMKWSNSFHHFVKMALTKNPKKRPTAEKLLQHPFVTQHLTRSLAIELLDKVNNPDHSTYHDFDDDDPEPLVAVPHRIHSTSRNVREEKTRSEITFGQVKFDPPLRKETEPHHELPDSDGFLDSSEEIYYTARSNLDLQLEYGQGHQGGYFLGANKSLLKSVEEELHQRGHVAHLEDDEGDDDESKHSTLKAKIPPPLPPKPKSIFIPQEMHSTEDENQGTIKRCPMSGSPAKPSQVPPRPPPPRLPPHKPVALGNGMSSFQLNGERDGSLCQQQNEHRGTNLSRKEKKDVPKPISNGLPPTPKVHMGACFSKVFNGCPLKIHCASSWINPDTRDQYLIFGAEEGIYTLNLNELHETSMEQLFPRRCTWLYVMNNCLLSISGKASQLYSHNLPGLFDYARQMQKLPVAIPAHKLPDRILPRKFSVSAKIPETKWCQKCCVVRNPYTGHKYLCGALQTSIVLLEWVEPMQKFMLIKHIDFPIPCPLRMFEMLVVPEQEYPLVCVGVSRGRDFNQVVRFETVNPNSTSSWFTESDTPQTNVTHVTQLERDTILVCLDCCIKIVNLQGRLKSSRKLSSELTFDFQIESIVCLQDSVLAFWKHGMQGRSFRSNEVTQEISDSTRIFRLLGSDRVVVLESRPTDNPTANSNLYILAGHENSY

[7] = target: 26S proteasome regulatory subunit 6B (Homo sapiens, UniProt P43686)
Sequence of 26S proteasome regulatory subunit 6B (P43686 whole entry): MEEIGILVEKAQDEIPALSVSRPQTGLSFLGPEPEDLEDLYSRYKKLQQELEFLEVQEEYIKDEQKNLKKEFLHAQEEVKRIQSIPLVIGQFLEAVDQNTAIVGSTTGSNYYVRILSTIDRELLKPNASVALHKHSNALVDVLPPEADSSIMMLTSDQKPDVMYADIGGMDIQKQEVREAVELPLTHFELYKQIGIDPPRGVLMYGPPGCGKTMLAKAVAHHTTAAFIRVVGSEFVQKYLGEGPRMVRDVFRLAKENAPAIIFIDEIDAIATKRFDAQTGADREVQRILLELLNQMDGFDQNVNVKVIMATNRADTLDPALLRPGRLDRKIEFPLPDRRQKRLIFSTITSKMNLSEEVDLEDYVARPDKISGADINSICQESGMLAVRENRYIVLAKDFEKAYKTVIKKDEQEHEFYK

[8] = target: T3, Septin-9 (Homo sapiens, UniProt Q9UHD8)
T3 sequence (Q9UHD8 whole entry): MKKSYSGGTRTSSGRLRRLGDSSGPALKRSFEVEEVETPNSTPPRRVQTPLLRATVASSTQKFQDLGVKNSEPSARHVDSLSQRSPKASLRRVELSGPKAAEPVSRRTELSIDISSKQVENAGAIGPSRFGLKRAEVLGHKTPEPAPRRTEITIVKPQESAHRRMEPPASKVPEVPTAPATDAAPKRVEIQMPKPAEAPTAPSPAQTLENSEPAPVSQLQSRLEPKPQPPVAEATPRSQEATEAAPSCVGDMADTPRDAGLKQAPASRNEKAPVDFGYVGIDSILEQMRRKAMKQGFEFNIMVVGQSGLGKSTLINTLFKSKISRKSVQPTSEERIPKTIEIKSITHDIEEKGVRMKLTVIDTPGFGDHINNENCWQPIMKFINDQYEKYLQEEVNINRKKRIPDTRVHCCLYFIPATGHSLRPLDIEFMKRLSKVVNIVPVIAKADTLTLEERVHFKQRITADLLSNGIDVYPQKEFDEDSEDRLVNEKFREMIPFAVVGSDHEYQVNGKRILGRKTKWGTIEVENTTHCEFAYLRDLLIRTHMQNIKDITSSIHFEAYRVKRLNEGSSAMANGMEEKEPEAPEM

[9] = target: T4, Membrane-associated tyrosine- and threonine-specific cdc2-inhibitory kinase (Homo sapiens, UniProt Q99640)
T4 sequence (Q99640 whole entry): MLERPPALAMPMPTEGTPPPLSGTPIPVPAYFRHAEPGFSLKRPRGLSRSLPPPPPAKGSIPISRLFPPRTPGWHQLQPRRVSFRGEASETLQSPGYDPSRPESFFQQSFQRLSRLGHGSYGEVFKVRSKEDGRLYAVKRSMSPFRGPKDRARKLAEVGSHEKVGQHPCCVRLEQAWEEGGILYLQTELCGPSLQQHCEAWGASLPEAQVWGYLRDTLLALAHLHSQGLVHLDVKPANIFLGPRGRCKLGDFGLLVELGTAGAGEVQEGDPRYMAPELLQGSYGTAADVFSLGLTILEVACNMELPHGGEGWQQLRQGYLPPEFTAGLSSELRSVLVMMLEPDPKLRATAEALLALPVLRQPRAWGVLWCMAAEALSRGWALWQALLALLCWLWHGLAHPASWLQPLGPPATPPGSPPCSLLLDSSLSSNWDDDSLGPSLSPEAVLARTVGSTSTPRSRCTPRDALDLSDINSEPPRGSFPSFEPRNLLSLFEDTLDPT

[10] = target: Hepatocyte growth factor receptor (Homo sapiens, UniProt P08581)
Sequence of Hepatocyte growth factor receptor (P08581 whole entry): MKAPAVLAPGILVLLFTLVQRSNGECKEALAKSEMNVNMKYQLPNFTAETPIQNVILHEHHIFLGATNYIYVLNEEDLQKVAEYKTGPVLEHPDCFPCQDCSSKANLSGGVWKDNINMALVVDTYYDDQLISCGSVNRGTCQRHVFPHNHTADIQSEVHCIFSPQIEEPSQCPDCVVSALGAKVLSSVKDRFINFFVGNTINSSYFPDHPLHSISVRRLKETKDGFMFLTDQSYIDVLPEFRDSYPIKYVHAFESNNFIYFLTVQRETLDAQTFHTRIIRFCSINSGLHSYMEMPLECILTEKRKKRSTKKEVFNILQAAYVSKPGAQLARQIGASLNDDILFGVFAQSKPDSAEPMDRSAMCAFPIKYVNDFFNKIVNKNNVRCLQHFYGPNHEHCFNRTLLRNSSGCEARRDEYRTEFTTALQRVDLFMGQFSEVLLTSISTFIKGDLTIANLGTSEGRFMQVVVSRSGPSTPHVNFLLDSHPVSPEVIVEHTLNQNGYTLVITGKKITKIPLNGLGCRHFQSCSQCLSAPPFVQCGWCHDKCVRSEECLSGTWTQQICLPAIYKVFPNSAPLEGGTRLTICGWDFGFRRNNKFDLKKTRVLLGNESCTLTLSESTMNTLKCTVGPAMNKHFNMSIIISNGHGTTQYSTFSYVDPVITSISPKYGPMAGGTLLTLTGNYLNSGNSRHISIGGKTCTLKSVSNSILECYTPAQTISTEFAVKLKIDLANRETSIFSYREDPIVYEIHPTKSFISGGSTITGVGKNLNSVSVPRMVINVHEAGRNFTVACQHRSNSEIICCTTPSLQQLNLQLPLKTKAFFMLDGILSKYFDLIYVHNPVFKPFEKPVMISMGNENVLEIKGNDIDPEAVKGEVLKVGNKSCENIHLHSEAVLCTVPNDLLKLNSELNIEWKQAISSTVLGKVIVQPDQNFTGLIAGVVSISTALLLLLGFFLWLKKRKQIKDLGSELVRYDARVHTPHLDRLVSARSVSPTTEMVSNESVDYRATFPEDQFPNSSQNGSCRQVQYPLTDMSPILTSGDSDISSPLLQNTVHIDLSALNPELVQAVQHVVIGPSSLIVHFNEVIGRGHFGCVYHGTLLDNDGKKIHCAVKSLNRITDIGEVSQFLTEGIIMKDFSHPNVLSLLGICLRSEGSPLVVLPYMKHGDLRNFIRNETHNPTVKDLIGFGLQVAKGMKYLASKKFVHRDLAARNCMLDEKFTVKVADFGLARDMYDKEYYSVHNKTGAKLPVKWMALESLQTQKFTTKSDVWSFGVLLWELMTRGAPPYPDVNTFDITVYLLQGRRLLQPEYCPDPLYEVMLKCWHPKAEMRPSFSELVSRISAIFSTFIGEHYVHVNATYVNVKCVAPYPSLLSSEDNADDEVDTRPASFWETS

[11] = target: Tyrosine-protein kinase FRK (Homo sapiens, UniProt P42685)

Sequence of Epithelial discoidin domain-containing receptor 1 (Q08345 whole entry, the tested form may be a part): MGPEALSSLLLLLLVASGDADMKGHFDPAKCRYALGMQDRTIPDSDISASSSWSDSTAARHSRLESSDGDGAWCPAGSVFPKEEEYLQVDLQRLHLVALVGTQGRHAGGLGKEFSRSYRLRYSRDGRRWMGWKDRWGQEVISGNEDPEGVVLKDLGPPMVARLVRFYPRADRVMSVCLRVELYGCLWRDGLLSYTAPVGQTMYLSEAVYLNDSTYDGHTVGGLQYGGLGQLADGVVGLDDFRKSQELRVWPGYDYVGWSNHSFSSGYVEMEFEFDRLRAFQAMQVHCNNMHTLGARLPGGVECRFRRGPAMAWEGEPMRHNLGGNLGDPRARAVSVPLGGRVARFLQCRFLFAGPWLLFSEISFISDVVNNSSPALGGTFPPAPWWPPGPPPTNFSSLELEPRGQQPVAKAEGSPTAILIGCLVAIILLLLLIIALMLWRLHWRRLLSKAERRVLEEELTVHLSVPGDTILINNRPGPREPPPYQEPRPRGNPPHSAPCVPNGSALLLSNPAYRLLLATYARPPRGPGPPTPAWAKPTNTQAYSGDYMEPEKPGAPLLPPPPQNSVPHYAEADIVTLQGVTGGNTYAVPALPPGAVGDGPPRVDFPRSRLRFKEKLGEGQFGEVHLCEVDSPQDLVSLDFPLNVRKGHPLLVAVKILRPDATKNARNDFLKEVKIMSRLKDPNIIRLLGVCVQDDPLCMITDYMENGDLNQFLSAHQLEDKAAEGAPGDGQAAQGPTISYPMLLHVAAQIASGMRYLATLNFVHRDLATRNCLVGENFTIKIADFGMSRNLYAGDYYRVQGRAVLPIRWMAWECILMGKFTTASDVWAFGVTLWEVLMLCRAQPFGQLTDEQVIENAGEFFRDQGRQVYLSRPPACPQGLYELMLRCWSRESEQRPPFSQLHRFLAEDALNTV
Sequence of Non-receptor tyrosine-protein kinase TYK2 (P29597 whole entry): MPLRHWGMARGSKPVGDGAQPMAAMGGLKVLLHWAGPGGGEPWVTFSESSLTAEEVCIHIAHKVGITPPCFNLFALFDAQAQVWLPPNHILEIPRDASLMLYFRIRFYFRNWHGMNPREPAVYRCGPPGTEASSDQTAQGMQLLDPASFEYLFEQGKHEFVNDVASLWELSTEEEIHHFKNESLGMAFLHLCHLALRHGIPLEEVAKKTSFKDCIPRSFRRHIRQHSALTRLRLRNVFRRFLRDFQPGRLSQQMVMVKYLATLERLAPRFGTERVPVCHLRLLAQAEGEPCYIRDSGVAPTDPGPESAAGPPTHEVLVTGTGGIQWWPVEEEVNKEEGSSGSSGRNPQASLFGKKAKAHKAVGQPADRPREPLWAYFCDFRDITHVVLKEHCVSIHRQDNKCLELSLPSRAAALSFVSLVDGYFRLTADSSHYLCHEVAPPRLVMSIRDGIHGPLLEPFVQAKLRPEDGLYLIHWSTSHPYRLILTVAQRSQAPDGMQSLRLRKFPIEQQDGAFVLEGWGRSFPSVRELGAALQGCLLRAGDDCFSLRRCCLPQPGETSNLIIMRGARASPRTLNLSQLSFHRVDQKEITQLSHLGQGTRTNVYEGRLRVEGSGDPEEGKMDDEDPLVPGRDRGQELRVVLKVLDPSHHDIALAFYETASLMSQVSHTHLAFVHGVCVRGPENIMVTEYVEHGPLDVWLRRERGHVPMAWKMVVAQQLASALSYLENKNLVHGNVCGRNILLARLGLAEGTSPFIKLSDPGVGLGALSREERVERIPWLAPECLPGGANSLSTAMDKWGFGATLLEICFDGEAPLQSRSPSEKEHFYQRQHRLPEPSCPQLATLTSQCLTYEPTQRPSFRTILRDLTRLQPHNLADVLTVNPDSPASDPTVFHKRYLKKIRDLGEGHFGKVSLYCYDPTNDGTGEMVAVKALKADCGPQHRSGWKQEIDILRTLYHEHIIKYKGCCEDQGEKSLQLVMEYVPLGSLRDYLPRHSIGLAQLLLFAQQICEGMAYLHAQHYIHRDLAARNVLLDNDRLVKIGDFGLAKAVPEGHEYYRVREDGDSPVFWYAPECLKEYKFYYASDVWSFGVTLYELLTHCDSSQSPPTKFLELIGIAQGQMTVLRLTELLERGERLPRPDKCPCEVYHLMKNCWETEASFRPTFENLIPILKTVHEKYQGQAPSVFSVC

CO[C@H]1C[C@@H]2CC[C@@H](C)[C@@](O)(O2)C(=O)C(=O)N2CCCC[C@H]2C(=O)O[C@H]([C@H](C)C[C@@H]2CC[C@@H](O)[C@H](OC)C2)CC(=O)[C@H](C)/C=C(\C)[C@@H](O)[C@@H](OC)C(=O)[C@H](C)C[C@H](C)/C=C/C=C/C=C/1C [SIROLIMUS]
Kd [1]: > 30 µM (inactive)
Kd [2]: > 30 µM (inactive)
Kd [3]: > 30 µM (inactive)
Kd [4]: > 30 µM (inactive)
Kd [5]: > 30 µM (inactive)
Kd [6]: > 30 µM (inactive)
Kd [7]: > 30 µM (inactive)
Kd [8]: > 30 µM (inactive)
Kd [9]: > 30 µM (inactive)
Kd [10]: > 30 µM (inactive)
Kd [11]: > 30 µM (inactive)

CCS(=O)(=O)c1cccc(-c2cc(C(=O)NC3CCN(C)CC3)c(C)c3[nH]c4ncc(C)cc4c23)c1 [TAK-901]
Kd [1]: 13.8 µM (active)
Kd [2]: > 30 µM (inactive)
Kd [3]: 6.8 µM (active)
Kd [4]: > 30 µM (inactive)
Kd [5]: 0.328 µM (active)
Kd [6]: 9.28 µM
Kd [7]: > 30 µM (inactive)
Kd [8]: > 30 µM (inactive)
Kd [9]: > 30 µM (inactive)
Kd [10]: > 30 µM (inactive)
Kd [11]: 0.222 µM (active)

CO[C@H]1C[C@@H]2CC[C@@H](C)[C@@](O)(O2)C(=O)C(=O)N2CCCC[C@H]2C(=O)O[C@H]([C@H](C)C[C@@H]2CC[C@@H](OC(=O)C(C)(CO)CO)[C@H](OC)C2)CC(=O)[C@H](C)/C=C(\C)[C@@H](O)[C@@H](OC)C(=O)[C@H](C)C[C@H](C)/C=C/C=C/C=C/1C [TEMSIROLIMUS]
Kd [1]: > 30 µM (inactive)
Kd [2]: > 30 µM (inactive)
Kd [3]: > 30 µM (inactive)
Kd [4]: > 30 µM (inactive)
Kd [5]: > 30 µM (inactive)
Kd [6]: > 30 µM (inactive)
Kd [7]: > 30 µM (inactive)
Kd [8]: > 30 µM (inactive)
Kd [9]: > 30 µM (inactive)
Kd [10]: > 30 µM (inactive)
Kd [11]: > 30 µM (inactive)

COc1cc2c(Nc3ccc(Cl)c(Cl)c3F)ncnc2cc1OC[C@@H]1C[C@@H]2CN(C)C[C@@H]2C1 [TESEVATINIB]
Kd [1]: 0.073 µM (active)
Kd [2]: > 30 µM (inactive)
Kd [3]: 65.7 µM (active)
Kd [4]: > 30 µM (inactive)
Kd [5]: 1.62 µM (active)
Kd [6]: 1.82 µM (active)
Kd [7]: > 30 µM (inactive)
Kd [8]: > 30 µM (inactive)
Kd [9]: > 30 µM (inactive)
Kd [10]: > 30 µM (inactive)
Kd [11]: > 30 µM (inactive)

O=C(Cc1ccc(-c2ccc(OCCN3CCOCC3)cc2)cn1)NCc1ccccc1 [TIRBANIBULIN]
Kd [1]: > 30 µM (inactive)
Kd [2]: > 30 µM (inactive)
Kd [3]: > 30 µM (inactive)
Kd [4]: > 30 µM (inactive)
Kd [5]: > 30 µM (inactive)
Kd [6]: > 30 µM (inactive)
Kd [7]: > 30 µM (inactive)
Kd [8]: > 30 µM (inactive)
Kd [9]: > 30 µM (inactive)
Kd [10]: > 30 µM (inactive)
Kd [11]: > 30 µM (inactive)

O=C1NC(=O)[C@@H](c2cn3c4c(cccc24)CCC3)[C@@H]1c1c[nH]c2ccccc12 [TIVANTINIB]
Kd [1]: > 30 µM (inactive)
Kd [2]: > 30 µM (inactive)
Kd [3]: > 30 µM (inactive)
Kd [4]: > 30 µM (inactive)
Kd [5]: > 30 µM (inactive)
Kd [6]: > 30 µM (inactive)
Kd [7]: > 30 µM (inactive)
Kd [8]: > 30 µM (inactive)
Kd [9]: > 30 µM (inactive)
Kd [10]: 0.511 µM (active)
Kd [11]: > 30 µM (inactive)

C[C@@H](NC(=O)c1ncnc(N)c1Cl)c1ncc(C(=O)Nc2cc(C(F)(F)F)c(Cl)cn2)s1 [TOVORAFENIB]
Kd [1]: 0.063 µM (active)
Kd [2]: > 30 µM (inactive)
Kd [3]: > 30 µM (inactive)
Kd [4]: > 30 µM (inactive)
Kd [5]: > 30 µM (inactive)
Kd [6]: > 30 µM (inactive)
Kd [7]: > 30 µM (inactive)
Kd [8]: > 30 µM (inactive)
Kd [9]: > 30 µM (inactive)
Kd [10]: > 30 µM (inactive)
Kd [11]: 0.172 µM (active)

Cn1ncc(Cl)c1-c1cc(C(=O)N[C@H](CN)Cc2ccc(F)c(F)c2)oc1Cl [UPROSERTIB]
Kd [1]: > 30 µM (inactive)
Kd [2]: > 30 µM (inactive)
Kd [3]: > 30 µM (inactive)
Kd [4]: 1.68 µM (active)
Kd [5]: > 30 µM (inactive)
Kd [6]: > 30 µM (inactive)
Kd [7]: > 30 µM (inactive)
Kd [8]: > 30 µM (inactive)
Kd [9]: > 30 µM (inactive)
Kd [10]: > 30 µM (inactive)
Kd [11]: > 30 µM (inactive)

CN1C/C=C/CCOc2cccc(c2)-c2ccnc(n2)Nc2cccc(c2)C1 [ZOTIRACICLIB]
Kd [1]: > 30 µM (inactive)
Kd [2]: > 30 µM (inactive)
Kd [3]: > 30 µM (inactive)
Kd [4]: > 30 µM (inactive)
Kd [5]: > 30 µM (inactive)
Kd [6]: 0.85 µM (active)
Kd [7]: > 30 µM (inactive)
Kd [8]: > 30 µM (inactive)
Kd [9]: > 30 µM (inactive)
Kd [10]: > 30 µM (inactive)
Kd [11]: > 30 µM (inactive)

Reference: ChEMBL document CHEMBL3991601, “The target landscape of clinical kinase drugs” (Science, 2017)
